# According to patent US20250186324A1, “SYNERGISTIC SKIN DEPIGMENTING COSMETIC COMPOSITION” (priority 2022, published 2025):
# Legend:
# DKK1 = DKK1 gene expression (real-time qPCR) in dermal fibroblasts; assay type: cell-based, human; details: 10 and 25 μM apigenin, 24 hours
# Description: (§1) To assess the levels of key pigmentation regulatory markers in fibroblasts, dermal fibroblasts (Promocell, #C-12302) were cultured for 24 hours with the active ingredient apigenin. After the treatment, the RNA was extracted (Norgen, #17200) and real-time qPCR was performed (Takara, #R[…]) on the DKK1 and VEGF genes.
# VEGF = VEGF gene expression (real-time qPCR) in dermal fibroblasts; assay type: cell-based, human; details: 10 and 25 μM apigenin, 24 hours
# Description: as §1
# Wnt pathway = Wnt pathway in melanocytes: melanogenesis-regulating gene expression after BIO stimulation (qPCR); assay type: cell-based, human; details: 0.1 μM BIO; 0.5 and 5 μM apigenin or 10 and 25 μM phloretin; 24 hours; genes TYRP1, DCT, PAX3, PMEL17
# Description: After the treatment, the RNA was extracted (Norgen, #17200) and a real-time qPCR was performed (Takara, #R[…]) on the TYRP1, DCT, PAX3 and PMEL17 genes.
# SCF pathway = SCF pathway in melanocytes: melanogenesis-regulating gene expression after CBD stimulation (qPCR); assay type: cell-based, human; details: 2.5 μM cannabidiol; 0.5 and 5 μM apigenin or 10 and 25 μM phloretin; 24 hours; genes DCT, PAX3
# Description: In order to assess the inhibition of the SCF pathway in melanocytes, human epidermal melanocytes were cultured with 2.5 μM cannabidiol (CBD)+0.5 and 5 μM apigenin or 10 and 25 μM phloretin for 24 hours. After the treatment, the RNA was extracted (Norgen, #17200) and a real-time qPCR was performed (Takara, #R[…]) on the DCT and PAX3 genes.
# miR-675 = miR-675 levels in melanocytes (real-time qPCR); assay type: cell-based; details: human epidermal melanocytes, 0.5 μM apigenin, 24 hours
# Description: In order to assess the effect of miRNA levels in melanocytes, human epidermal melanocytes were cultured with 0.5 μM apigenin or 10 μM phloretin for 24 hours. After the treatment, the RNA was extracted (Norgen, #17200) and a real-time qPCR was performed (Takara, #638313) on miR-675.
# skin hyperpigmentation = details: mice treated with UVB; cited from earlier work
# tyrosinase = details: spectroscopy and chromatography; cited from earlier work
SMILES,DKK1 expression (DKK1),VEGF expression (VEGF),expression of melanogenesis-regulating genes after stimulation with BIO (Wnt pathway),expression of the melanogenesis-regulating genes after stimulation with CBD (SCF pathway),miR-675 levels (miR-675),skin hyperpigmentation (skin hyperpigmentation),action on tyrosinase (tyrosinase)
"O=c1cc(-c2ccc(O)cc2)oc2cc(O)cc(O)c12 [apigenin, 5,7-dihydroxy-2-(4-hydroxyphenyl)-4H-1-benzopyran-4-one]",significantly induces,reduces,significantly reduce,significantly reduce,significantly increasing,inhibits,
"O=C(CCc1ccc(O)cc1)c1c(O)cc(O)cc1O [phloretin, 3-(4-hydroxyphenyl)-1-(2,4,6-trihydroxyphenyl)propane-1-one]",,,significantly reduce,significantly reduce,,,a tyrosinase substrate but also an inhibitor
